Values joined by “and” are separate entries in the source; they are usually repeats but may differ in a detail not shown here. Identical values can stand only once. Like-named read-outs stand apart in the source and are kept apart here.
Key:
CXCR1 = target: T1, CXCR1 (Homo sapiens, UniProt P25024); test: Membrane-based NanoBRET saturation assay, selectivity (CXCR1_Nluc membranes); assay type: binding; details: cell-free, CXCR1_Nluc membranes
T1 construct: host or cells: HEK293T, transient; membrane preparation
T1 sequence (P25024 1-350): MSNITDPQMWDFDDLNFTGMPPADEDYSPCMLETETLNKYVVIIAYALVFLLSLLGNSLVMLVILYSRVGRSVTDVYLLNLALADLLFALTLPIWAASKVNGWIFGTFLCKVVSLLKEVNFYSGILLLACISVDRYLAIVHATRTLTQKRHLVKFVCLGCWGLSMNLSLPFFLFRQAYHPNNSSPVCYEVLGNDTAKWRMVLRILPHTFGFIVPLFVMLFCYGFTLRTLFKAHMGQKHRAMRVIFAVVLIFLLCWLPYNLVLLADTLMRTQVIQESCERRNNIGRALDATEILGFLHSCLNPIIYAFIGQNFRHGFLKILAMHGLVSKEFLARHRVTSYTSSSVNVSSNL
Description: (§1) For the establishment of our NanoBRET binding assay, we referred to a recently published protocol.[45] The fluorescent ligands (9a–c) were dissolved in DMSO (1 mM) and further diluted to varying concentrations in an assay buffer (50 mM Na2HPO4, 50 mM KH2PO4, pH 7.4, 1 mg/mL saponin, 5% FBS) and 5 μL of these dilutions were pipetted to a 384-well plate. To determine the total binding, 5 μL of the assay buffer was added to the corresponding wells, while 5 μL of a solution of 3 in the assay buffer (final assay concentration: 1 μM) was used to determine nonspecific binding. Then, 20 μL of the membrane preparations diluted in the assay buffer (2 μg total protein/well) were added and the plates were incubated for 90 min at 37 °C. Subsequently, 5 μL of a furimazine solution (Promega, Mannheim, Germany, final assay dilution: 1:5000) was added to each well (final assay volume: 35 μL) before measuring luminescence with a CLARIOstar microplate reader using 620/10 and 475/30 nm emission filters after 5 min of incubation in the dark. Bioluminescence resonance energy transfer (BRET) was determined as the ratio of acceptor fluorescence and donor luminescence. The algorithms for one-site saturation binding from PRISM9.5 (GraphPad) were utilized to analyze total, nonspecific, and specific binding. Specific binding signals were calculated as a difference of total and nonspecific binding. If required, netBRET values were calculated as the difference between total BRET values and the values obtained in the absence of a fluorescent ligand. For selectivity studies with CCR2, CCR7, CCR9, and CXCR1, we modified the procedure described above.

CXCR2 [1] = target: T2, CXCR2 (Homo sapiens, UniProt P25025); test: Membrane-based NanoBRET saturation assay (CXCR2_Nluc membranes); assay type: binding; details: cell-free
T2 construct: Promega pNLF1-C (Nluc) #CXCR20TN00; host or cells: HEK293T, transient transfection (PEI)
T2 sequence (P25025 1-360): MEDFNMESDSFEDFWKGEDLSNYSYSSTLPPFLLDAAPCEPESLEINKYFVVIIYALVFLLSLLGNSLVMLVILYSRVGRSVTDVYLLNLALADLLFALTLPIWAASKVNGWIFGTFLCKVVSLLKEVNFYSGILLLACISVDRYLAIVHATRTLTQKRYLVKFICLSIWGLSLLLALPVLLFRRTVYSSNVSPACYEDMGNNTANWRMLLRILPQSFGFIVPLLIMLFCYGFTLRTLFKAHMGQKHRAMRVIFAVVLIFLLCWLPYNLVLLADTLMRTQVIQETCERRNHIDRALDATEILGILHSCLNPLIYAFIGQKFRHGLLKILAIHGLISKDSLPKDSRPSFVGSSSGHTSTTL
Description: Membranes from HEK293T cells transiently expressing the respective GPCR were prepared as follows. The medium of the transfected cells was refreshed after 24 h before cells were harvested 48 h post-transfection. The growth medium was removed, and the cells were carefully washed with cold phosphate-buffered saline (10 mL per Ø 15 cm dish). The cells were detached with 15 mL of ice-cold Tris-EDTA buffer (10 mM Tris, 0.5 mM EDTA, 5.4 mM KCl, 140 mM NaCl, pH 7.4) and subsequently centrifuged with 218g for 8 min. The supernatant was removed and the cells were resuspended in 10 mL of Tris-EDTA buffer. The cells were lysed with an Ultraturrax (20,000 rpm) used five times for 5 s with a 25 s break on ice in between. The lysate was centrifuged at 50,830g for 18 min at 4 °C. The supernatant was discarded, and the pellet was homogenized in a membrane buffer (50 mM Tris, 1 mM EDTA, 5 mM MgCl2, 100 μg/mL bacitracin, 5 μg/mL soybean trypsin inhibitor, pH 7.4) with a glass-teflon homogenizer. Aliquots of 250 μL were shock-frozen in liquid nitrogen and directly stored at −80 °C. Finally, the protein concentration was determined using the Lowry method.[43]
as §1

CXCR2 [2] = target: T2, CXCR2; test: Membrane-based NanoBRET competition assay with 9a; assay type: binding; details: for % comp. @ 70 μM: competitor 70 μM, 9a (50 nM)
Description: Then, 20 μL of the membrane preparation (diluted in assay buffer, 2 μg total protein/well) was added and the plates were incubated for 90 min at 37 °C. Subsequently, 5 μL of a furimazine solution (final assay dilution: 1:5000 in the assay buffer) was added to each well (final assay volume: 35 μL). […] To determine the inhibition constants (Ki) of the nonlabeled ligands, data were analyzed using the one-site-fit Ki equation in PRISM9.5 (GraphPad).

CXCR2 [3] = target: T2, CXCR2; details: cited from earlier work
CXCR2 [4] = target: T2, CXCR2; test: Fluorescence microscopy, displacement of 9a in HEK293 cells stably expressing CXCR2; assay type: cell-based; details: 9a 500 nM
Description: For live cell microscopy, HEK293 cells stably expressing CXCR2 were seeded onto poly-D-lysine (PDL)-coated 8-well μ-slides (Ibidi) at a density of 1.5 × 10^5 cells per well and cultured overnight at 37 °C and 5% CO2. […] Afterward, the fluorescent CXCR2 ligand ((9a) final concentration 500 nM) was added for 60 min at 37 °C, and the cells were washed once with PBS before imaging. For immunostaining, the cells were first fixed with 4% paraformaldehyde solution, washed with PBS, and then blocked for 1 h with 10% goat serum and 1% fatty acid-free bovine serum albumin (BSA) in PBS at 37 °C. As primary antibody, anti-CXCR2 mouse IgG (R&D Systems, catalog # 48311, 1:100 in blocking solution) was added, and the cells were incubated for 1 h at 37 °C. After three washes with PBS, goat anti-mouse IgG (H+L) conjugated to FITC (Sigma-Aldrich, catalog # AP124F, 1:500 in blocking solution) was added for 1 h at 37 °C. The cells were again washed three times with PBS and counterstained with 4′,6-diamidin-2-phenylindole (DAPI) solution (0.1 μg/mL) for 15 min in the dark at room temperature, followed by three washes with PBS. […] Afterward, the fluorescent CXCR2 ligand ((9a) final concentration 500 nM) was added for 30 min at 37 °C and the cells were imaged. Microscopy was carried out on an AxioObserver.Z1 microscope (Carl Zeiss, Jena, Germany) equipped with an ApoTome imaging system and a Heating unit XL S using a Plan-Apochromat ×63/1.40 Oil objective (filter set 43 (red), 38 (green), 49 (blue)). Image processing and line scan analysis were performed with Zen blue Imaging software. The fluorescence intensity values were normalized to vehicle control.

[5] = membranes from HEK293T cells transiently expressing CXCR2_Nluc, read-out: Kd (equilibrium saturation binding)
[6] = Ki of nonfluorescent ligands, cell-free, read-out: cell-free Kd or Ki for CXCR2
[7] = competition with 9a (50 nM), CXCR2_Nluc membranes, read-out: Ki
[8] = competition with 9a (50 nM), CXCR2_Nluc membranes, read-out: pKi (converted)

Structure (SMILES): Cc1ccc([C@H](Nc2c(Nc3cccc(C(=O)NCc4cn(CCOCCOCCNC(=O)c5ccc(C(=O)[O-])c(-c6c7ccc(=[N+](C)C)cc-7oc7cc(N(C)C)ccc67)c5)nn4)c3O)c(=O)c2=O)C(C)(C)C)o1 [9b, (R)-4-((2-(2-(2-(4-((3-((2-((2,2-Dimethyl-1-(5-methylfuran-2-yl)propyl)amino)-3,4-dioxocyclobut-1-en-1-yl)amino)-2-hydroxybenzamido)methyl)-1H-1,2,3-triazol-1-yl)ethoxy)ethoxy)ethyl)carbamoyl)-2-(6-(dimethylamino)-3-(dimethyliminio)-3H-xanthen-9-yl)benzoate]
- Kd (CXCR1): 122 ± 5.6 nM
- Kd (CXCR2 [1]; [5]): 4.62 ± 0.87 nM

Structure (SMILES): CC(=O)C1=C(O)C(=O)N(c2ccc(Br)cc2F)C1C1CCCCC1 (stereo not drawn) [compound 20]
- Ki (CXCR2 [2]; [6]): 2700 nM
- Ki (CXCR2 [2]; [7]): ≥ 261 nM
- Ki (CXCR2 [2]; [8]): 2630 nM

Structure (SMILES): CC[C@@H](Nc1c(Nc2ccnc(C(=O)N(C)C)c2O)c(=O)c1=O)c1cc(C(C)C)co1 [compound 1]
- IC50 (CXCR2 [3]; reported value ref 4): 0.62 nM

Structure (SMILES): Cc1ccc([C@H](Nc2c(Nc3cccc(C(=O)NCc4cn(CCCNC(=O)c5ccc(-c6c7ccc(=[N+](C)C)cc-7oc7cc(N(C)C)ccc67)c(C(=O)[O-])c5)nn4)c3O)c(=O)c2=O)C(C)(C)C)o1 [9c, (R)-5-((3-(4-((3-((2-((2,2-Dimethyl-1-(5-methylfuran-2-yl)propyl)amino)-3,4-dioxocyclobut-1-en-1-yl)amino)-2-hydroxybenzamido)methyl)-1H-1,2,3-triazol-1-yl)propyl)carbamoyl)-2-(6-(dimethylamino)-3-(dimethyliminio)-3H-xanthen-9-yl)benzoate]
- Kd (CXCR1): 49.3 ± 0.7 nM
- Kd (CXCR2 [1]; Kd of fluorescent ligands, read-out: cell-free Kd or Ki for CXCR2): 2 nM
- Kd (CXCR2 [1]; [5]): 2.62 ± 0.78 nM

Structure (SMILES): CC[C@@H](Nc1c(Nc2cccc(C(=O)N(C)C)c2O)c(=O)c1=O)c1ccc(C)o1 [compound 2, navarixin]
- effect of preincubation on membrane-associated 9a fluorescence (CXCR2 [4]; fixed HEK293 cells stably expressing CXCR2, competitor 10 μM): virtually blunted all membrane-associated probe fluorescence
- effect of preincubation on membrane-based 9a fluorescence (CXCR2 [4]; live cell imaging, HEK293 cells stably expressing CXCR2, competitor 10 μM): very strong reduction in membrane-based fluorescence

Structure (SMILES): COCCn1cc(CNC(=O)c2cccc(Nc3c(N[C@@H](c4ccc(C)o4)C(C)(C)C)c(=O)c3=O)c2O)nn1 [compound 8, (R)-3-((2-((2,2-Dimethyl-1-(5-methylfuran-2-yl)propyl)amino)-3,4-dioxocyclobut-1-en-1-yl)amino)-2-hydroxy-N-((1-(2-methoxyethyl)-1H-1,2,3-triazol-4-yl)methyl)benzamide]
- Ki (CXCR2 [2]; [8]): 0.427 nM

Structure (SMILES): O=C(Nc1ccc(Cl)c(S(=O)(=O)N2CCNCC2)c1O)Nc1cccc(F)c1Cl [compound 6, elubrixin]
- IC50 (CXCR2 [3]; reported value ref 17): 22 nM

Structure (SMILES): CC(C)(C)c1ccc(S(=O)(=O)Nc2ccc(Cl)cc2C(=O)c2cc[n+]([O-])cc2)cc1 [compound 23, vercirnon]
- cell-free Kd or Ki for CXCR2 [nM] (CXCR2 [2]; Ki of nonfluorescent ligands, cell-free): n.i.
- Ki (CXCR2 [2]; [7]): ≥ 261 nM
- % comp. @ 70 μM (CXCR2 [2]; CXCR2_Nluc membranes): -3%

Structure (SMILES): O=C(O)c1ccccc1Oc1ccc(Cl)cc1NS(=O)(=O)c1ccc(Cl)c(Cl)c1 [compound 21]
- Ki (CXCR2 [2]; [6]): 4900 nM
- Ki (CXCR2 [2]; [7]): ≥ 261 nM
- Ki (CXCR2 [2]; [8]): 4680 nM

Structure (SMILES): Cc1ccc([C@H](NC2=NS(=O)(=O)N=C2Nc2ccc(C)c(C(=O)N(C)C)c2O)C(C)(C)C)o1 [compound 22]
- Ki (CXCR2 [2]; [6]): 261 nM
- Ki (CXCR2 [2]; [7]): ≥ 261 nM and 300 nM
- Ki (CXCR2 [2]; [8]): 251 nM

Structure (SMILES): CC(C)(C)c1ccc(S(=O)(=O)Nc2ccc(Cl)cc2-c2cncnc2N)cc1 [compound 24]
- Ki (CXCR2 [2]; [7]): ≥ 261 nM
- % comp. @ 70 μM (CXCR2 [2]; CXCR2_Nluc membranes): 28%

Reference: article PMC10388362, “Fluorescent Ligands Enable Target Engagement Studies for the Intracellular Allosteric Binding Site of the Chemokine Receptor CXCR2” (Journal of Medicinal Chemistry, 2023)
